{"source": "BindingDB's records for patent US20240190872", "about": "(University of Illinois, 2024)", "target": "T1, Enoyl-[acyl-carrier-protein] reductase [NADH] (UniProt A0A6F8TJQ1)", "T1 sequence (A0A6F8TJQ1 whole entry)": "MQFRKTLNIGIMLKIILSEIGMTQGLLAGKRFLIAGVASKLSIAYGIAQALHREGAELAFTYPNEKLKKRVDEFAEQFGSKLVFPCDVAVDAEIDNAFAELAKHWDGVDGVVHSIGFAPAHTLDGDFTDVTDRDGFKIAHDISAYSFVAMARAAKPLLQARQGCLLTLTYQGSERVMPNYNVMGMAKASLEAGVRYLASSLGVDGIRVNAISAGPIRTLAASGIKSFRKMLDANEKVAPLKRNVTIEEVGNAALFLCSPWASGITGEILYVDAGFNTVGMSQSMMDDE", "assay": "standard FabI enzyme assay", "protocol": "To probe the effects of varying ring systems and amine placement on FabI target engagement, the apparent inhibition constants (Kiapp) for select compounds were determined using purified FabI. The goal of these studies was two-fold, to comparatively assess fabimycin, Debio-1452-NH3, and Debio-1452, and to also assess differential activity against the E. coli and A. baumannii versions of FabI. FabI from E. coli and A. baumannii were recombinantly expressed and purified, and the ability for each compound to inhibit the activity of these enzymes was evaluated using a standard FabI enzyme assay."}
{"smiles": "Cc1c(CN(C)C(=O)/C=C/c2cnc3c(c2)C[C@@H](N)C(=O)N3)oc2ccccc12", "note": "[US20240190872, Compound (+-)-Debio-1452-NH3]", "values": [{"measurement": "Ki", "value": 114, "unit": "nM"}]}
